Test results taken from US20220380473A1, “ANTI-GAL3 ANTIBODIES AND USES THEREOF” (TrueBinding, Inc., priority 2019, published 2022).

What was measured:
[1] = target: T1, interaction between Gal3 and TIM-3 (Mus musculus, UniProt P16110); test: Blocking ELISA, mouse Gal3 coated plate and mouse TIM-3 Fc; format: binding; conditions: mGal3 coated plate, mouse TIM-3 Fc
T1 construct: purchased BioLegend (mouse Gal3); R&D systems (mouse TIM-3 Fc)
Procedure: ELISA assays were also performed to test the interaction between Gal3 and TIM-3. 96 well ELISA plates (ThermoFisher Scientific) were coated with mouse Gal3 protein (BioLegend, San Diego, Calif.) in PBS or human Gal9 protein (R&D systems) in PBS or phosphatidylserine (PS) (Sigma) in ethanol and incubated at 4° C. for overnight. The plate was washed three times with TBST and then blocked with PBS buffer containing 2% BSA at room temperature for 1 hour. In FIG. 5A, different anti Gal3 antibodies, i.e. mGal3 polyclonal antibody (R&D systems), mAb IMT001 (also described in WO 2019/023247, hereby expressly incorporated by reference in its entirety), mAb M3/38 (Thermofisher Scientific) (FIG. 5A), were added to well that has been coated with Gal3. The antibodies were incubated for 10 minutes and mouse TIM-3 Fc were then added to the plates and incubated for an additional one-hour incubation. Plates were then washed for three times and followed by incubation with anti-human-IgG-HRP (Jackson ImmunoResearch) for 1 h at room temperature. The color was developed with TMB subtract (GeneTex, Irvine, Calif.) after three time washes with TBST and the reaction was terminated with 1N HCl. The optical density (OD) was read at 450 nm. The results were expressed as the average OD of duplicates±SD. […]

Gal9 binding to TIM-3 = target: T2, Gal9 binding to TIM-3 (Homo sapiens, UniProt O00182); test: Sugar-dependence ELISA, hGal9 coated plate and mouse TIM-3 Fc
T2 construct: purchased R&D systems
T2 sequence (O00182 whole entry): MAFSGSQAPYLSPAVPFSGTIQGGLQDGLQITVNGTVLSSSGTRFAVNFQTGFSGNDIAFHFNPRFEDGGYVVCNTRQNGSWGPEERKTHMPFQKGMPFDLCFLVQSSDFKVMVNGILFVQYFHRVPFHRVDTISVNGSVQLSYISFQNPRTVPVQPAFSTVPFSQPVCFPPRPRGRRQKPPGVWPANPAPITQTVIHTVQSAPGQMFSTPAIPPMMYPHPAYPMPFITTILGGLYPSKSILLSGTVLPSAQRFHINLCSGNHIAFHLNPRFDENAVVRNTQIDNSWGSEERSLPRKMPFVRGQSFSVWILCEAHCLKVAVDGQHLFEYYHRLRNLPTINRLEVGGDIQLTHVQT

T1 sequence (P16110 2-264 limits assumed): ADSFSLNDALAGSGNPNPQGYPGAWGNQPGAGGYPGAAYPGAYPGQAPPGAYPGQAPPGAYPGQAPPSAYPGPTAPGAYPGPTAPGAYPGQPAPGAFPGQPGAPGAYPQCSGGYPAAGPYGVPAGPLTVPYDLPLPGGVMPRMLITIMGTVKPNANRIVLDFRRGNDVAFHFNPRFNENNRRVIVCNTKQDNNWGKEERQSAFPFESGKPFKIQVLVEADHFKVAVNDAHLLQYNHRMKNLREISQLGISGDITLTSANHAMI

OC[C@H]1O[C@@H](O[C@H]2[C@H](O)[C@@H](O)[C@@H](O)O[C@@H]2CO)[C@H](O)[C@@H](O)[C@H]1O [lactose, α-Lactose, reference compound]
block of Gal3 binding to TIM-3 [1]: minimal
reduction in signal, Gal9-TIM-3 binding (Gal9 binding to TIM-3; 25 mM α-Lactose present vs absent): more than 10 fold
block of Gal9 binding to TIM-3 (Gal9 binding to TIM-3; 25 mM α-Lactose, hGal9 coated plate): blocked
